Assay results taken from patent US20250367290A1, “ENGINEERED STEM CELLS AND USES THEREOF” (Umoja Biopharma, Inc., priority 2022, published 2025).

How the values were obtained:
[1] = system: non-Hodgkin's lymphoma tumor cells; test: RACR-iCIL co-culture cytotoxicity with or without rituximab; format: cell-based; details: added to RACR-iCILs
Protocol: (§1) In a similar experiment, RACR-iCILs were cocultured with Burkitt's lymphoma tumor cells or non-Hodgkin's lymphoma tumor cells at a ratio of 2.5:1, 10:1, or 0:1, and stimulated with and without rapamycin and/or cytokines. Additional groups included rituximab. Cytotoxicity was determined by imaging cells across 40 hours, as described in Example 6.

[2] = system: Burkitt's lymphoma tumor cells; test: as above; format: cell-based; details: added to RACR-iCILs
Protocol: as §1

[3] = system: PSMA-positive human prostate cancer cells; details: DUPA-(99m) Tc; cited from earlier work
[4] = system: hematopoietic progenitors (CD34+/CD43+/CD45+); test: HP differentiation phase: rapamycin requirement; format: cell-based
Protocol: RACR iPSCs (edited B2M-EF1a-RACR and knocked out for FKBP12) were cultured in media, as described in Example 9. At day 0-2, embryoid bodies (EBs) were generated from a single cell suspension of iPSCs in STEMdiff APEL 2 Medium (STEMCELL Technologies) supplemented with BMP4, FGF2, VEGF, Y27632, and +/− rapalog (RL; AP21967) or +/− rapamycin (RM). EBs were formed using plates comprising aggregates of microwells (e.g. Aggrewell™ 800 plates) at 500 iPSC/EB or 1000 iPSC/EB, as described in Example 9 and shown in FIG. 34. As shown in FIG. 35A-B, higher iPSC confluency at the start of differentiation contributes to a higher HP yield. Further, a range of 200-250 iPSC/EBs seeded in microwells is optimal to achieve the highest HP yield on day 15 (FIG. 35C).
The differentiating EBs were moved to non-tissue culture treated 6-well plates (Corning) at day 6 and fresh HP Medium was added. Every 3 days from days 3-15, half of the media was replaced with HP Medium.

[5] = system: iCIL cells; test: iCIL differentiation and expansion in bioreactors; format: cell-based; details: iCIL differentiation phase
Protocol: At Day 15 of culture, the differentiated cells were continued in culture for up to 40 days for iCIL cell generation. At Day 21, the GRex bioreactor was seeded with the cells, as described in Example 13. […] Lower seeding densities on days 15 and 24 contributed to increased iCIL yields, while higher seeding densities contributed to higher iCIL yields on Days 30-33 (FIG. 39B). In another experiment, this step was repeated with two different stirred-tank bioreactors at various stages in the protocol.
Thus, Aim V was used as the base medium for the iCIL differentiation phase. Components and supplements in the Aim V medium used during the iCIL differentiation phase were tested for their effect on iCIL yield and cytotoxicity.

[6] = system: FKBP12 KO iPSCs; test: iPSC confluency during four days of rapamycin; format: cell-based, human; details: four days of treatment
Protocol: (§2) RACR requires rapamycin for activation; however, rapamycin inhibits cell growth. To generate rapamycin resistant cells, the FKBP12 gene was knocked-out. […] In the absence of FKBP12, rapamycin cannot interact with the mTOR complex and thus loses its inhibitory capacity. The efficiency of the knockout was determined by Sanger sequencing. Con1, Con2, or Con3 indicate different electroporation conditions for CRISPR-Cas9 based editing resulting in differing levels of knockout. Phase-contrast images reveal normal iPSC morphology in both wild type and FKBP12 KO cells, FIG. 16B, right panel. The confluency of wildtype iPSCs after four days of treatment with varying doses of rapamycin with inhibition of growth at 1 nM rapamycin or higher is shown in FIG. 16C. […] The ability of clonal FKBP12 KO iPSCs to differentiate to hematopoietic progenitors (HPs) in the presence of rapamycin is shown in FIG. 16E.

[7] = system: wildtype iPSCs; test: iPSC confluency after four days of rapamycin; format: cell-based, human; details: four days of treatment
Protocol: as §2

[8] = system: TagCAR-RACR iCIL cells; test: RACR-driven differentiation and expansion of iCIL cells from Day 26 lymphoid progenitors; format: cell-based, human; details: AP21967 100 nM, no other cytokine
Excerpt: The RACR-system was utilized for differentiation to iPSC-derived CIL cells (iCIL cells). The iPSC cell line ATCC-BXS0117 (ATCC #ACS-1031) was differentiated into lymphoid progenitors through the STEMdiff NK cell kit (STEMCELL® Technologies, #100-0170) as described in Example 2 above, up until the Day 26 timepoint. The percentage of cells containing common lymphoid progenitors (CD45+/CD5+/CD7+), CIL precursors (CD45+/CD5−/CD7+), and early CIL cells (CD45+/CD5−/CD7+/CD56+) is seen in FIG. 3D with ˜50% of the cells presenting as CIL precursors and ˜25% of total cells presenting as early CIL cells. In this study, Day 26 cells were pelleted and placed in a CIL expansion media at 2×10^6 cells/mL containing (IL-2, IL-15, IL-21, IL-18, IL-7 in complete RPMI media: RPMI1640, 10% FBS, 1× Pen-Strep, and 1× Glutamax). […]
At Day 27, the cells were transduced with either VSV-G lentivirus with the payload of Tag (anti-FITC) CAR-P2A-FRB-P2A-RACR at an MOI 10 with 10 µg/mL of protamine sulfate or treated with 10 μg/mL or protamine sulfate alone (Mock). […] An aliquot of cells was collected weekly, counted on the Vicell Blu automated cell counter, and stained for CD16 clone 3G8, CD56 clone HCD56, CD45 clone 2D1, CD5 clone L17F12, CD7 clone CD7-6B7 and anti-FITC CAR (TagCAR) detection through FITC-AF647.

[9] = system: RACR-iCILs; test: Proliferation of D47 RACR-iCILs; format: cell-based; details: rapalog 100 nM
Protocol: RACR-iCILs were generated similar to as described in FIG. 18A and FIG. 18B except without SCF and TPO included in the HP medium as described in Example 9 and FIG. 17A. Data shown are from two BE-RACR iPSC clones. At D40 RACR-iCILs were incubated for one week in a maturation medium containing IL-2, IL-7, IL-12, IL-15, IL-18 and activation beads (anti-CD2/NKp46). RACR-iCILs were then incubated with breast adenocarcinoma MDA-MB23 1 cells expressing a nuclear fluorescent protein at a 10:1 […] ratio in the presence of medium alone, cytokines (IL-2/IL-7/IL-15), or rapalog (100 nM). Cell mixtures were placed into an IncuCyte fluorescent microscope and imaged every 2 hours. The number of MDA-MB23 1 cells was quantified over time via a fluorescent marker and graphed as the ratio of MDA-MB23 1 cells compared to time 0 (time 0 is equal to one). […] RACR-iCILs were then collected, placed in fresh media, and then re-exposed to MDA-MB23 1 cells for a rechallenge (FIG. 19A). Proliferation of D47 RACR-iCILs was also evaluated in different cytokine treatments or rapalog (100 nM).

[10] = system: RACR-CAR+ cells; test: Differentiation of RACR-transduced CLP into CIL cells with or without common gamma chain cytokines; format: cell-based, human

rituximab: antibody added to RACR-iCIL co-cultures with lymphoma tumor cells
further increase of tumor killing [1]: 10% | further increase of tumor killing [2]: 10%

O=C(O)CC[C@H](NC(=O)N[C@@H](CCC(=O)O)C(=O)O)C(=O)O [DUPA]
Kd [3]: 14 nM

CO[C@H]1C[C@@H]2CC[C@@H](C)[C@@](O)(O2)C(=O)C(=O)N2CCCC[C@H]2C(=O)O[C@H]([C@H](C)C[C@@H]2CC[C@@H](O)[C@H](OC)C2)CC(=O)[C@H](C)/C=C(\C)[C@@H](O)[C@@H](OC)C(=O)[C@H](C)C[C@H](C)/C=C/C=C/C=C/1C [rapamycin]
lowest rapamycin concentration sufficient to produce comparable HP yields [4]: 3.1 nM | lowest rapamycin concentration sufficient to expand iCIL cells [5]: 6.2 nM | rapamycin doses with robust growth (confluency) [6]: up to 100 nM | rapamycin dose with inhibition of growth (confluency) [7]: ≥ 1 nM

CO[C@@H]1C[C@H](C[C@H](C)C2CC(=O)[C@@H](C)/C=C(\C)[C@@H](O)[C@@H](OC)C(=O)[C@H](C)C[C@@H](C)/C=C/C=C/C=C(\C)[C@H](c3c[nH]c4c(C)cccc34)C[C@H]3CC[C@@H](C)[C@@](O)(O3)C(=O)C(=O)N3CCCC[C@H]3C(=O)O2)CC[C@@H]1O (some centres unmarked) [AP21967]
iCIL expansion and differentiation [8]: sufficient to drive iCIL expansion in the absence of any other cytokine signaling | total RACR-iCILs one week after stimulation [9]: supported RACR-iCIL growth | percent of RACR-CAR+CD56+ cells ([10]; 4 nM AP21967, all media conditions, Day 40): increase in the percent of RACR-CAR+CD56+ cells | fold change in RACR-CAR+ cells ([10]; UM729 alone (None) media plus rapalog): largest fold change in RACR-CAR+ cells
